This is an account of results in US20130142796A1, “TREATMENT FOR ANGIOGENIC DISORDERS” (priority 2011, published 2013).

Test [1] concerns patient with active fluid within or under the retina. Put plainly: Case studies of Patients 1-8: intravitreal injection, lesion activity followed by OCT and fluorescein angiography. Format: in vivo, human. The conditions noted are these: for subretinal fluid: Patient 1, after 21 previous intravitreal injections of either Lucentis or Avastin; for sub-retinal and sub-RPE fluid: Patient 3, after repeated mono-therapy, ranibizumab 11 times or bevacizumab 3 times; for subretinal fluid and cystoid degeneration: despite photodynamic therapy with verteporfin X2, monthly ranibizumab X12, bevacizumab X15. Here is the method: In the following examples, “protocol” treatment means that 0.3 mg of pegaptanib in combination with 0.125 mg of bevacizumab or 0.5 mg of ranibizumab, all in commercially available formulations, were injected intravitreally to a patient, using standard procedures for such injections.
The patient provided written consent following a thorough discussion of relative risks and benefits of the potential use of Macugen® in a combination format with simultaneous administration of intravitreal Avastin®.
Macugen® was first injected intravitreally (0.3 mg in 0.09 cc). Optic nerve perfusion and intraocular pressure were assessed. Upon restoration of adequate perfusion and pressure stabilization, the eye was once again sterilized and a second intravitreal injection of Avastin® (1.25 mg in 0.05 cc) was given. Optic nerve perfusion and intraocular pressure were reassessed, and the patient was scheduled for routine follow-up.

Test [2] concerns the target heparin-binding domain (HBD) of VEGF (Homo sapiens, UniProt P15692). The conditions noted are these: Lee et al., FEBS Lett. 2008; cited from earlier work.
[3] abbreviates: Patient 4, drug used in isolation after protocol treatment.

“Also recorded” adds a separate entry of the source.

Sequence of heparin-binding domain (HBD) of VEGF (P15692 137-191 isoform P15692-4 limits assumed): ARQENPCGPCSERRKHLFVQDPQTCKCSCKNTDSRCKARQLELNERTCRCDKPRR

Regarding bevacizumab, in test [1], the subretinal fluid result is given as “chronic subretinal fluid”; the “sub-retinal and sub-RPE fluid” value was “chronic fluid in the sub-retinal and sub-RPE (retinal pigment epithelium) space”. For the same molecule, the fluid entry in test [1] (setting [3]) is “recurrent fluid”. Further, the fluid result in test [1] (Patient 6, re-administration of bevacizumab mono-therapy after protocol treatment) was “recurrent fluid”. Also, the “subretinal fluid and cystoid degeneration” value in test [1] (Patient 7) was “subretinal fluid (SRF); also recorded: chronic subretinal fluid and cystoid degeneration”. Also, in test [1] (Patient 7, return to bevacizumab alone after protocol treatment), the fluid and vision result is “relapse of fluid and vision loss”.
For the molecule pegaptanib, in test [2], the binding affinity entry is given as “high affinity”. For the same molecule, the fluid result in test [1] (setting [3]) was “recurrent fluid”.
For verteporfin, the “subretinal fluid and cystoid degeneration” value in test [1] (Patient 7) is “chronic subretinal fluid and cystoid degeneration”.

B1: ranibizumab (antibody, chains of the INN, looked up, V domains shown)
VH: EVQLVESGGGLVQPGGSLRLSCAASGYDFTHYGMNWVRQAPGKGLEWVGWINTYTGEPTYAADFKRRFTFSLDTSKSTAYLQMNSLRAEDTAVYYCAKYPYYYGTSHWYFDVWGQGTLVTVSS
VL: DIQLTQSPSSLSASVGDRVTITCSASQDISNYLNWYQQKPGKAPKVLIYFTSSLHSGVPSRFSGSGSGTDFTLTISSLQPEDFATYYCQQYSTVPWTFGQGTKVEIK
modifications: Fab
For B1, in test [1], the subretinal fluid result is listed as “chronic subretinal fluid”; the “sub-retinal and sub-RPE fluid” value is “chronic fluid in the sub-retinal and sub-RPE (retinal pigment epithelium) space”. For the same molecule, the “subretinal fluid on OCT” value in test [1] (Patient 2, after 33 consecutive intravitreal ranibizumab treatments) was “subretinal fluid (SRF); also recorded: chronic residual subretinal fluid”. Moreover, the “fluorescein angiogram, late frames” value in test [1] (Patient 2, before combination therapy, after 33 intravitreal ranibizumab) is on record as “leakage from the choroidal neovascular membrane (CNVM)”. In addition, in test [1] (Patient 4, despite 10 ranibizumab injections), the “cystoid macular edema (CME)” value is recorded as “chronic cystoid macular edema (CME)”. In addition, the “lesion activity on angiogram and OCT” value in test [1] (Patient 6, after 22 ranibizumab treatments) is “persistent lesion activity”. For the same molecule, the disease management result in test [1] (Patient 6, ranibizumab mono-therapy after disease was acutely managed with protocol treatment) is reported as “could be managed with ranibizumab mono-therapy alone”. Further, the “subretinal fluid and cystoid degeneration” value in test [1] (Patient 7) was “subretinal fluid (SRF); also recorded: chronic subretinal fluid and cystoid degeneration”.
